According to US8093226B2, “Cytostatic 7-deazapurine nucleosides” (Institute of Organic Chemistry and Biochemistry of the …, priority 2008, dated 2012):

Assays:
Type in all cases: cell-based
PC3 = assay: Test A: Cytostatic Cell Culture Assay (GI50), PC3; conditions: Homo sapiens, PC-3, 120 h; PC3 cells, 5 days, SRB; read-out: G150 Prostate PC3
Text: (§1) Test A: Cytostatic Cell Culture Assay (GI50)
(§2) This assay is based on quantification of cell counts by a calorimetric detection of the cell associated proteins. The assay relies on the ability of sulforhodamine B (SRB) to bind to protein components of cells that have been fixed to tissue-culture plates by trichloroacetic acid (TCA). SRB is a bright-pink aminoxanthene dye with two sulfonic groups that bind to basic amino-acid residues under mild acidic conditions, and dissociate under basic conditions. As the binding of SRB is stoichiometric, the amount of dye extracted from stained cells is directly proportional to the cell mass.
(§3) Cell lines: All cell lines are obtained from ATCC (Manassas, Va.). Cultivation media containing Glutanax, and trypsin are purchased from Invitrogen (Carlsbad, Calif.). Doxorubicin, Clofarabine, TCA and SRB are from Sigma-Aldrich (St. Louis, Mo.). Gemcitabine is obtained from Moravek Biochemicals (Brea, Calif.)
(§4) • 1. Trypsinize the sub-confluent cells, count them, and adjust the cell concentrations according to the cell counts listed in Table 1. • 2. Distribute the cells into the 96-well plates in 150 μL of media. Incubate the plates overnight in humidified CO2 incubator at 37° C. • 3. Fix one plate of each cell line with TCA. Discard the cultivation media from the plates by flicking them gently and add 100 μL cold 10% (vol/vol) TCA to each well. Incubate the plates at 4 degree refrigerator for 1 hour. Discard TCA from the plates by flicking them gently. Rinse plates four times in a washing basin containing tap water. Store the plates at room temperature. These plates represent cell counts on day zero. • 4. Prepare a set of medium solutions containing various concentrations of tested compounds by making 5-fold serial dilutions in 96-well plate. Add 50 μL of the diluted compounds per well. Include controls with untreated cells and cells treated with doxorubicin, clofarabine and gemcitabine. • 5. Incubate the plates for 5 days at 37° C. • 6. Fix the plates with TCA. Discard the cultivation media from the plates by flicking them gently and add 100 μL cold 10% (vol/vol) TCA to each well. Incubate the plates at 4 degree refrigerator for 1 hour. Discard TCA from the plates by flicking them gently. Rinse plates four times in a washing basin containing tap water. • 7. Remove excess water by tapping the plates face down, gently on a paper towel. Allow the plates to air-dry at room temperature. • 8. Add 100 μL of 0.057% SRB solution in 1% (vol/vol) acetic acid to each well of the plates fixed with TCA on day zero and five. Leave at room temperature for 30 minutes. • 9. Flick the plates gently to discard SRB. Rinse the plates four times with 1% (vol/vol) Acetic Acid. • 10. Store the plates at 370 incubator to facilitate faster drying. • 11. Once the plates are completely dry, add 200 μL of 10 mM Tris base solution (pH 10.5) to each well. Leave at room temperature for 30 minutes for SRB to solubilize. • 12. Measure the OD at 500 nm in a microplate reader. • 13. Calculate the percentage of cell-growth inhibition using the next formula: % of control cell growth=100×(ODsample−mean ODday0)/(ODneg control−mean ODday0)
(§5) For GI50 determination, plot a dose-response curves between the compound concentration and percent of growth inhibition. GI50 values can be derived by fitting dose-response curves using sigmoidal dose response equation.

HCT116 = assay: Test A: Cytostatic Cell Culture Assay (GI50), HCT116; conditions: Homo sapiens, HCT-116, 120 h; HCT116 cells, 5 days, SRB; read-out: G150 Colon HCT116
Text: as §1, §2, §3, §4, §5

Hs578 = assay: Test A: Cytostatic Cell Culture Assay (GI50), Hs578; conditions: 120 h; Hs578 cells, 5 days, SRB; read-out: G150 Breast Hs578
Text: as §1, §2, §3, §4, §5

Du145 = assay: Test A: Cytostatic Cell Culture Assay (GI50), Du145; conditions: Homo sapiens, DU-145, 120 h; Du145 cells, 5 days, SRB; read-out: G150 Prostate Du145
Text: as §1, §2, §3, §4, §5

NCIH23 = assay: Test A: Cytostatic Cell Culture Assay (GI50), NCIH23; conditions: Homo sapiens, NCI-H23, 120 h; NCIH23 cells, 5 days, SRB; read-out: G150 Lung NCIH23
Text: as §1, §2, §3, §4, §5

HCT15 = assay: Test A: Cytostatic Cell Culture Assay (GI50), HCT15; conditions: Homo sapiens, HCT-15, 120 h; HCT15 cells, 5 days, SRB; read-out: G150 Colon HCT15
Text: as §1, §2, §3, §4, §5

A549 = assay: Test A: Cytostatic Cell Culture Assay (GI50), A549; conditions: Homo sapiens, 120 h; A549 cells, 5 days, SRB; read-out: G150 Lung A549
Text: as §1, §2, §3, §4, §5

Structure (SMILES)	IC50 (PC3)	IC50 (HCT116)	IC50 (Du145)	IC50 (HCT15)	IC50 (A549)	IC50 (Hs578)	IC50 (NCIH23)
OC[C@H]1O[C@@H](n2ccc3c(-c4ccn[nH]4)ncnc32)[C@H](O)[C@@H]1O [Example 16]	560 nM	7310 nM	409 nM	1060 nM	3250 nM	3940 nM	3230 nM
OC[C@H]1O[C@@H](n2ccc3c(-c4cccnc4)ncnc32)[C@H](O)[C@@H]1O [Example 10]	> 20000 nM	> 20000 nM	> 20000 nM	> 20000 nM	> 20000 nM	> 20000 nM	> 20000 nM
OC[C@H]1O[C@@H](n2ccc3c(Cc4ccccc4)ncnc32)[C@H](O)[C@@H]1O [Example 2, 4-Benzyl-7-(β-D-ribofuranosyl)-7H-pyrrolo[2,3-d]pyrimidine]	–	> 20000 nM	15700 nM	–	> 20000 nM	> 20000 nM	–
OC[C@H]1O[C@@H](n2cc(Cl)c3c(-c4ccoc4)ncnc32)[C@H](O)[C@@H]1O [Example 31, 5-Chloro-4-(furan-3-yl)-7-(β-D-ribofuranosyl)-7H-pyrrolo[2,3-d]pyrimidine]	1200 nM	1960 nM	54 nM	632 nM	1050 nM	1580 nM	5260 nM
OC[C@H]1O[C@@H](n2ccc3c(-c4ccccn4)ncnc32)[C@H](O)[C@@H]1O [Example 18, 4-(Pyridin-2-yl)-7-(β-D-ribofuranosyl)-7H-pyrrolo[2,3-d]pyrimidine]	–	> 20000 nM	387 nM	–	4860 nM	> 20000 nM	–
OC[C@H]1O[C@@H](n2cc(F)c3c(-c4c[nH]cn4)ncnc32)[C@H](O)[C@@H]1O [Example 26, 5-Fluoro-4-(1H-imidazol-4-yl)-7-(β-D-ribofuranosyl)-7H-pyrrolo[2,3-d]pyrimidine]	2110 nM	> 20000 nM	887 nM	3590 nM	> 20000 nM	2110 nM	7620 nM
OC[C@H]1O[C@@H](n2ccc3c(-c4cn[nH]c4)ncnc32)[C@H](O)[C@@H]1O [Example 17, 4-(1H-Pyrazol-4-yl)-7-(β-D-ribofuranosyl)-7H-pyrrolo[2,3-d]pyrimidine]	427 nM	5680 nM	75 nM	674 nM	6230 nM	3060 nM	5230 nM
OC[C@H]1O[C@@H](n2cc(F)c3c(-c4ccccc4)ncnc32)[C@H](O)[C@@H]1O [Example 19, 5-Fluoro-4-phenyl-7-(β-D-ribofuranosyl)-7H-pyrrolo[2,3-d]pyrimidine]	–	> 20000 nM	581 nM	–	12900 nM	19200 nM	–
OC[C@H]1O[C@@H](n2cc(Cl)c3c(-c4ccco4)ncnc32)[C@H](O)[C@@H]1O [Example 29, 5-Chloro-4-(furan-2-yl)-7-(β-D-ribofuranosyl)-7H-pyrrolo[2,3-d]pyrimidine]	> 20000 nM	> 20000 nM	10000 nM	8150 nM	15200 nM	> 20000 nM	13200 nM
CCc1ncnc2c1ccn2[C@@H]1O[C@H](CO)[C@@H](O)[C@H]1O [Example 1, 4-Ethyl-7-(β-D-ribofuranosyl)-7H-pyrrolo[2,3-d]pyrimidine]	–	2560 nM	1240 nM	–	4400 nM	4680 nM	–
OC[C@H]1O[C@@H](n2ccc3c(-c4ccc[se]4)ncnc32)[C@H](O)[C@@H]1O [Example 15, 7-(O-D-Ribofuranosyl)-4-(selenophen-2-yl)-7H-pyrrolo[2,3-d]pyrimidine]	12 nM	342 nM	28 nM	5 nM	230 nM	290 nM	2520 nM
OC[C@H]1O[C@@H](n2ccc3c(-c4ccc(F)cc4)ncnc32)[C@H](O)[C@@H]1O [Example 4, 4-(4-Fluorophenyl)-7-(β-D-ribofuranosyl)-7H-pyrrolo[2,3-d]pyrimidine]	–	> 20000 nM	729 nM	–	> 20000 nM	2520 nM	–
COc1ccc(-c2ncnc3c2ccn3[C@@H]2O[C@H](CO)[C@@H](O)[C@H]2O)cc1 [Example 3, 4-(4-Methoxyphenyl)-7-(β-D-ribofuranosyl)-7H-pyrrolo[2,3-d]pyrimidine]	–	> 20000 nM	1310 nM	–	> 20000 nM	> 20000 nM	–

Further molecules by falling IC50 (HCT116), results first:

IC50 (PC3)	IC50 (HCT116)	IC50 (Du145)	IC50 (HCT15)	IC50 (A549)	Structure (SMILES)	IC50 (Hs578)	IC50 (NCIH23)
104 nM	484 nM	19 nM	208 nM	409 nM	OC[C@H]1O[C@@H](n2ccc3c(-c4nccs4)ncnc32)[C@H](O)[C@@H]1O [Example 8, 7-(β-D-Ribofuranosyl)-4-(thiazol-2-yl)-7H-pyrrolo[2,3-d]pyrimidine]	294 nM	4390 nM
176 nM	453 nM	9 nM	111 nM	195 nM	OC[C@H]1O[C@@H](n2cc(F)c3c(-c4ccc[nH]4)ncnc32)[C@H](O)[C@@H]1O [Example 22]	315 nM	2610 nM
52 nM	447 nM	30 nM	30 nM	252 nM	OCc1ncnc2c1ccn2[C@@H]1O[C@H](CO)[C@@H](O)[C@H]1O [Example 11, 4-Hydroxymethyl-7-(β-D-ribofuranosyl)-7H-pyrrolo[2,3-d]pyrimidine]	53 nM	28 nM
60 nM	255 nM	10 nM	65 nM	126 nM	OC[C@H]1O[C@@H](n2cc(F)c3c(-c4cc[nH]c4)ncnc32)[C@H](O)[C@@H]1O [Example 27, 5-Fluoro-7-(β-D-ribofuranosyl)-4-(pyrrol-3-yl)-7H-pyrrolo[2,3-d]pyrimidine]	356 nM	1600 nM
92 nM	216 nM	32 nM	98 nM	627 nM	OC[C@H]1O[C@@H](n2ccc3c(-c4ccsc4)ncnc32)[C@H](O)[C@@H]1O [Example 13, 7-(β-D-Ribofuranosyl)-4-(thiophen-3-yl)-7H-pyrrolo[2,3-d]pyrimidine]	711 nM	4240 nM
118 nM	101 nM	18 nM	148 nM	378 nM	OC[C@H]1O[C@@H](n2cc(Cl)c3c(-c4ccsc4)ncnc32)[C@H](O)[C@@H]1O [Example 32, 5-Chloro-7-(β-D-ribofuranosyl)-4-(thiophen-3-yl)-7H-pyrrolo[2,3-d]pyrimidine]	109 nM	4540 nM
87 nM	18 nM	5 nM	39 nM	60 nM	OC[C@H]1O[C@@H](n2cc(F)c3c(-c4ccoc4)ncnc32)[C@H](O)[C@@H]1O [Example 23, 5-Fluoro-4-(furan-3-yl)-7-(β-D-ribofuranosyl)-7H-pyrrolo[2,3-d]pyrimidine]	177 nM	4640 nM
